Several values for one entry are separate records, joined by “and”; a condition that tells them apart may be missing. Equal entries are not always repeated.
Assays:
[1] = DTA
[2] = Molar enthalpy of transition or fusion; conditions: DSC
[3] = molar heat capacity at constant pressure; conditions: 101.33 kPa, Liquid, Large sample (1 g) DSC

CCCCCC[n+]1ccn(C)c1.O=S(=O)([N-]S(=O)(=O)C(F)(F)F)C(F)(F)F
Conditions | Molar enthalpy of transition or fusion [kcal/mol] | Normal melting temperature [°C] | molar heat capacity at constant pressure
[1], Crystal | – | -1.70 | –
[2], Crystal | 6.62 | – | –
[3], 302.86 K | – | – | 655.92 J/K/mol
[3], 312.83 K | – | – | 632.65 J/K/mol and 660.84 J/K/mol
[3], 322.79 K | – | – | 666.66 J/K/mol
[3], 322.81 K | – | – | 640.7 J/K/mol
[3], 332.76 K | – | – | 668 J/K/mol
[3], 332.78 K | – | – | 648.76 J/K/mol
[3], 342.73 K | – | – | 671.58 J/K/mol
[3], 342.76 K | – | – | 657.26 J/K/mol
[3], 352.7 K | – | – | 676.95 J/K/mol
[3], 352.72 K | – | – | 666.66 J/K/mol
[3], 362.67 K | – | – | 683.66 J/K/mol
[3], 362.68 K | – | – | 679.18 J/K/mol
[3], 372.64 K | – | – | 690.82 J/K/mol

CCCCCCCCn1cc[n+](C)c1.O=S(=O)([N-]S(=O)(=O)C(F)(F)F)C(F)(F)F
Conditions | Molar enthalpy of transition or fusion [kcal/mol] | Normal melting temperature [°C] | molar heat capacity at constant pressure [J/K/mol]
[1], Metastable crystal | – | -23.34 | –
[2], Metastable crystal | 6.56 | – | –
[3], 281.99 K | – | – | 693.71
[3], 291.95 K | – | – | 695.62
[3], 302.86 K | – | – | 690.39
[3], 302.88 K | – | – | 692.29
[3], 312.83 K | – | – | 705.13
[3], 312.86 K | – | – | 705.6
[3], 322.79 K | – | – | 714.16
[3], 322.84 K | – | – | 719.87
[3], 332.76 K | – | – | 719.87
[3], 332.81 K | – | – | 732.7
[3], 342.72 K | – | – | 725.57
[3], 342.78 K | – | – | 748.39
[3], 352.68 K | – | – | 730.33
[3], 352.74 K | – | – | 757.9
[3], 362.65 K | – | – | 736.98
[3], 362.71 K | – | – | 767.89
[3], 372.62 K | – | – | 742.21
[3], 372.66 K | – | – | 779.78

— the NIST ThermoML archive (doi:10.1021/je101213p)
